# From PubChem BioAssay AID720672 (NMMLSC, 2013)
# Activity calls are given as the source filed them. No rule for the calls is given here.
# Molecular target: Lethal factor (Bacillus anthracis) (UniProt P15917)
# Assay: Bacillus anthracis LF protease inhibitors, dose response, biochemical, multiplex microsphere (AID 720672)
# Conditions: multiplex microsphere LF protease substrate cleavage, flow cytometry
# Chain of Lethal factor (Bacillus anthracis) (P15917 whole entry, looked up): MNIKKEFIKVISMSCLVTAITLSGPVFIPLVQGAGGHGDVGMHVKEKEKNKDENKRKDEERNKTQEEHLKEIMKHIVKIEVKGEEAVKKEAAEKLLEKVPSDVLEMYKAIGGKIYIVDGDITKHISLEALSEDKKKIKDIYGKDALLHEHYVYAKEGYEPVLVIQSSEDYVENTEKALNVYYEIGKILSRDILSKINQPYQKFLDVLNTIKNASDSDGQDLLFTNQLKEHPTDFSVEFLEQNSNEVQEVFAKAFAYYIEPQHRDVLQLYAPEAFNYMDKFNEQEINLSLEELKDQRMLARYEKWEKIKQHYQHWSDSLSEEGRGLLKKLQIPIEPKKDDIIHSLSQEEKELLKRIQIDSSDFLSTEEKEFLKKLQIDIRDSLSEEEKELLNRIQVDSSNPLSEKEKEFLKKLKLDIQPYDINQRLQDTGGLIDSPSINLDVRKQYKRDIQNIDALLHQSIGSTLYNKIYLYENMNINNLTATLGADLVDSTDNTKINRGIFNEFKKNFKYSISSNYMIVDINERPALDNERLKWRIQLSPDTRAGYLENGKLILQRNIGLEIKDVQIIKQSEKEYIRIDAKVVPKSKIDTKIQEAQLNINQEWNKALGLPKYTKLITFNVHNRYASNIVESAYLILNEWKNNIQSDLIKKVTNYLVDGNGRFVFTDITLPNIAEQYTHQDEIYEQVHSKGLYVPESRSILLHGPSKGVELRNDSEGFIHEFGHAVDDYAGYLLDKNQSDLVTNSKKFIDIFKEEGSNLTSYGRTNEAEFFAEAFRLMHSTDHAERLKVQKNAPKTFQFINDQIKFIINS
row,Compound,IC50
1,CC(C)CS(=O)(=O)Nc1ccc2nc(-c3ccccc3)c(-c3ccccc3)nc2c1,> 20 µM (inactive)
2,CCS(=O)(=O)Nc1ccc2nc(-c3ccccc3)c(-c3ccccc3)nc2c1,> 20 µM (inactive)
3,CC(=O)Nc1ccc2nc(-c3ccccc3)c(-c3ccccc3)nc2c1,> 20 µM (inactive)
4,Cc1ccc(-c2nc3nc(-c4ccc(F)cc4)cn3nc2-c2ccc(C)cc2)cc1,5.9 µM
5,CCCOC(=O)Nc1ccc2nc(-c3ccccc3)c(-c3ccccc3)nc2c1,> 20 µM (inactive)
6,COc1ccc(-c2nc3nc(-c4cccc(OC)c4)cn3nc2-c2ccc(OC)cc2)cc1,10.1 µM
7,CC(C)OC(=O)Nc1ccc2nc(-c3cccs3)c(-c3cccs3)nc2c1,> 20 µM (inactive)
8,CC(C)(C)C(=O)Nc1ccc2nc(-c3ccccc3)c(-c3ccccc3)nc2c1,> 20 µM (inactive)
9,Fc1ccc(-c2nc3nc(-c4ccc(OC(F)(F)F)cc4)cn3nc2-c2ccc(F)cc2)cc1,> 20 µM (inactive)
10,Cc1ccc(-c2cn3nc(-c4ccc(F)cc4)c(-c4ccc(F)cc4)nc3n2)cc1,7.2 µM
11,Fc1ccc(-c2cn3nc(-c4ccc(F)cc4)c(-c4ccc(F)cc4)nc3n2)cc1,4 µM
12,COc1ccc(-c2nc3nc(-c4ccccc4OC)cn3nc2-c2ccc(OC)cc2)cc1,6.1 µM
13,O=S(=O)(Nc1ccc2nc(-c3ccccc3)c(-c3ccccc3)nc2c1)C1CC1,> 20 µM (inactive)
14,COC(=O)Nc1ccc2nc(-c3cccs3)c(-c3cccs3)nc2c1,> 20 µM (inactive)
15,CS(=O)(=O)c1ccc(-c2cn3nc(-c4ccc(F)cc4)c(-c4ccc(F)cc4)nc3n2)cc1,> 20 µM (inactive)
16,CCCCOC(=O)Nc1ccc2nc(-c3ccccc3)c(-c3ccccc3)nc2c1,> 20 µM (inactive)
17,CCCS(=O)(=O)Nc1ccc2nc(-c3cccs3)c(-c3cccs3)nc2c1,> 20 µM (inactive)
18,Cc1ccc(-c2cn3nc(-c4ccc(C)cc4)c(-c4ccc(C)cc4)nc3n2)cc1,5.1 µM
19,COc1ccc(-c2cn3nc(-c4ccc(F)cc4)c(-c4ccc(F)cc4)nc3n2)c(OC)c1,2.9 µM
20,Cc1ccc(-c2nc3nc(-c4ccc(C#N)cc4)cn3nc2-c2ccc(C)cc2)cc1,> 20 µM (inactive)
21,CCCCOC(=O)Nc1ccc2nc(-c3cccs3)c(-c3cccs3)nc2c1,16.4 µM

row,Compound,IC50
1,COc1ccc(-c2cn3nc(-c4ccc(OC)cc4)c(-c4ccc(OC)cc4)nc3n2)cc1,> 20 µM (inactive)
2,CCNC(=O)Nc1ccc2nc(-c3ccccc3)c(-c3ccccc3)nc2c1,> 20 µM (inactive)
3,COc1ccccc1-c1cn2nc(-c3ccc(C)cc3)c(-c3ccc(C)cc3)nc2n1,12.9 µM
4,O=C(Nc1ccc2nc(-c3cccs3)c(-c3cccs3)nc2c1)C1CC1,> 20 µM (inactive)
5,O=C(Nc1ccc2nc(-c3ccccc3)c(-c3ccccc3)nc2c1)NC1CCCC1,> 20 µM (inactive)
6,CS(=O)(=O)c1ccc(-c2cn3nc(-c4ccccc4)c(-c4ccccc4)nc3n2)cc1,> 20 µM (inactive)
7,COc1cccc(-c2cn3nc(-c4ccc(F)cc4)c(-c4ccc(F)cc4)nc3n2)c1,7.5 µM
8,CCNC(=S)Nc1ccc2nc(-c3ccccc3)c(-c3ccccc3)nc2c1,> 20 µM (inactive)
9,COc1ccccc1-c1cn2nc(-c3ccccc3)c(-c3ccccc3)nc2n1,> 20 µM (inactive)
10,CCC(=O)Nc1ccc2nc(-c3ccccc3)c(-c3ccccc3)nc2c1,> 20 µM (inactive)
11,CCNC(=O)Nc1ccc2nc(-c3cccs3)c(-c3cccs3)nc2c1,16.3 µM
12,O=C(Nc1ccc2nc(-c3ccccc3)c(-c3ccccc3)nc2c1)C1CC1,> 20 µM (inactive)
13,Clc1ccc(-c2cn3nc(-c4ccccc4)c(-c4ccccc4)nc3n2)c(Cl)c1,> 20 µM (inactive)
14,FC(F)(F)Oc1ccc(-c2cn3nc(-c4ccccc4)c(-c4ccccc4)nc3n2)cc1,17.9 µM
15,O=C(Nc1ccc2nc(-c3cccs3)c(-c3cccs3)nc2c1)C1CCC1,> 20 µM (inactive)
16,Fc1ccc(-c2cn3nc(-c4ccccc4)c(-c4ccccc4)nc3n2)cc1,> 20 µM (inactive)
17,COc1ccccc1-c1cn2nc(-c3ccc(F)cc3)c(-c3ccc(F)cc3)nc2n1,5.4 µM
18,COc1cccc(-c2cn3nc(-c4ccccc4)c(-c4ccccc4)nc3n2)c1,15.2 µM
19,O=C(Nc1ccc2nc(-c3cccs3)c(-c3cccs3)nc2c1)C1CCCC1,> 20 µM (inactive)
20,O=C(Nc1ccc2nc(-c3cccs3)c(-c3cccs3)nc2c1)NC1CCCC1,> 20 µM (inactive)
21,CC(C)NC(=O)Nc1ccc2nc(-c3cccs3)c(-c3cccs3)nc2c1,> 20 µM (inactive)

row,Compound,IC50
1,O=C(Nc1ccc2nc(-c3ccccc3)c(-c3ccccc3)nc2c1)C1CCCCC1,> 20 µM (inactive)
2,COc1ccc(-c2nc3nc(-c4ccc(S(C)(=O)=O)cc4)cn3nc2-c2ccc(OC)cc2)cc1,> 20 µM (inactive)
3,COC(=O)Nc1ccc2nc(-c3ccccc3)c(-c3ccccc3)nc2c1,> 20 µM (inactive)
4,Cc1ccc(-c2nc3nc(-c4cccc(F)c4)cn3nc2-c2ccc(C)cc2)cc1,3.7 µM
5,COc1ccc(-c2nc3nc(-c4cccc(F)c4)cn3nc2-c2ccc(OC)cc2)cc1,5.5 µM
6,O=C(Nc1ccc2nc(-c3ccccc3)c(-c3ccccc3)nc2c1)OCc1ccccc1,> 20 µM (inactive)
7,COc1ccc(-c2cn3nc(-c4ccc(F)cc4)c(-c4ccc(F)cc4)nc3n2)cc1,6.5 µM
8,Cc1ccc(-c2nc3nc(-c4ccc(S(C)(=O)=O)cc4)cn3nc2-c2ccc(C)cc2)cc1,> 20 µM (inactive)
9,O=S(=O)(Nc1ccc2nc(-c3cccs3)c(-c3cccs3)nc2c1)C1CC1,> 20 µM (inactive)
10,COc1ccc(-c2nc3nc(-c4ccc(C)cc4)cn3nc2-c2ccc(OC)cc2)cc1,> 20 µM (inactive)
11,Cc1ccc(-c2nc3nc(-c4ccc(OC(F)(F)F)cc4)cn3nc2-c2ccc(C)cc2)cc1,> 20 µM (inactive)
12,COc1ccc(-c2nc3nc(-c4ccc(C#N)cc4)cn3nc2-c2ccc(OC)cc2)cc1,> 20 µM (inactive)
13,COc1ccc(-c2nc3nc(-c4ccc(OC)cc4OC)cn3nc2-c2ccc(OC)cc2)cc1,> 20 µM (inactive)
14,CCC(=O)Nc1ccc2nc(-c3cccs3)c(-c3cccs3)nc2c1,> 20 µM (inactive)
15,CC(Oc1ccccc1)C(=O)Nc1ccc2nc(-c3ccccc3)c(-c3ccccc3)nc2c1 (configuration not stated),> 20 µM (inactive)
16,COc1ccc(-c2nc3nc(-c4ccccc4)cn3nc2-c2ccc(OC)cc2)cc1,6.3 µM
17,O=C(Nc1ccc2nc(-c3ccccc3)c(-c3ccccc3)nc2c1)C1CCCC1,> 20 µM (inactive)
18,COc1ccc(-c2nc3nc(-c4ccc(OC(F)(F)F)cc4)cn3nc2-c2ccc(OC)cc2)cc1,3.7 µM
19,CCOC(=O)Nc1ccc2nc(-c3ccccc3)c(-c3ccccc3)nc2c1,> 20 µM (inactive)
20,CCCOC(=O)Nc1ccc2nc(-c3cccs3)c(-c3cccs3)nc2c1,> 20 µM (inactive)
21,COc1ccc(-c2cn3nc(-c4ccccc4)c(-c4ccccc4)nc3n2)c(OC)c1,> 20 µM (inactive)

row,Compound,IC50
1,Fc1ccc(-c2nc3nc(-c4cccc(F)c4)cn3nc2-c2ccc(F)cc2)cc1,6.7 µM
2,COc1ccc(-c2cn3nc(-c4ccc(C)cc4)c(-c4ccc(C)cc4)nc3n2)cc1,> 20 µM (inactive)
3,CC(C)(C)NC(=O)Nc1ccc2nc(-c3ccccc3)c(-c3ccccc3)nc2c1,> 20 µM (inactive)
4,COc1ccc(-c2cn3nc(-c4ccc(C)cc4)c(-c4ccc(C)cc4)nc3n2)c(OC)c1,> 20 µM (inactive)
5,COc1ccc(-c2nc3nc(-c4ccc(F)cc4)cn3nc2-c2ccc(OC)cc2)cc1,3.1 µM
6,CC(C)OC(=O)Nc1ccc2nc(-c3ccccc3)c(-c3ccccc3)nc2c1,> 20 µM (inactive)
7,CC(C)NC(=O)Nc1ccc2nc(-c3ccccc3)c(-c3ccccc3)nc2c1,> 20 µM (inactive)
8,CCOC(=O)Nc1ccc2nc(-c3cccs3)c(-c3cccs3)nc2c1,> 20 µM (inactive)
9,Fc1cccc(-c2cn3nc(-c4ccccc4)c(-c4ccccc4)nc3n2)c1,11.5 µM
10,N#Cc1ccc(-c2cn3nc(-c4ccc(F)cc4)c(-c4ccc(F)cc4)nc3n2)cc1,> 20 µM (inactive)
11,COc1cccc(-c2cn3nc(-c4ccc(C)cc4)c(-c4ccc(C)cc4)nc3n2)c1,4.3 µM
12,CCCS(=O)(=O)Nc1ccc2nc(-c3ccccc3)c(-c3ccccc3)nc2c1,> 20 µM (inactive)
13,CCCNC(=O)Nc1ccc2nc(-c3ccccc3)c(-c3ccccc3)nc2c1,> 20 µM (inactive)
14,CC(C)CS(=O)(=O)Nc1ccc2nc(-c3cccs3)c(-c3cccs3)nc2c1,> 20 µM (inactive)
15,O=C(Nc1ccc2nc(-c3ccccc3)c(-c3ccccc3)nc2c1)C1CCC1,> 20 µM (inactive)
16,Fc1ccc(-c2nc3nc(-c4ccccc4)cn3nc2-c2ccc(F)cc2)cc1,9.6 µM
17,Cc1ccc(-c2nc3nc(-c4ccccc4)cn3nc2-c2ccc(C)cc2)cc1,6.8 µM
18,N#Cc1ccc(-c2cn3nc(-c4ccccc4)c(-c4ccccc4)nc3n2)cc1,> 20 µM (inactive)
19,O=C(Nc1ccc2nc(-c3cccs3)c(-c3cccs3)nc2c1)OCc1ccccc1,> 20 µM (inactive)
